# Experimental data published in patent US8044100B2, “Methods and compositions for treating amyloid-related diseases” (Bellus Health Inc., priority 2004, dated 2011).
# What was measured:
# NAC peptide = biological target: T1, NAC peptide (Homo sapiens, UniProt P37840); assay: Binding to NAC peptide by electrospray mass spectrometry; settings: 5:1 ratio compound:NAC (100 μM:20 μM or 200 μM:40 μM), pH 7.4; bound complex peak area / unbound NAC peak area
# T1 construct: NAC is a 35 amino acid long peptide with highly hydrophobic stretches
# Experimental: The ability of the compounds of the present invention to bind to NAC peptide in aqueous solution was evaluated. The binding ability correlates to the intensities of the peptide-compound complex peaks observed by the Electrospray Mass Spectrum. Millipore distilled deionized water was used to prepare all aqueous solutions. For pH determination a Beckman Φ36 pH meter fitted with a Corning Semi-Micro Combination pH Electrode was employed.
# The optimal cone voltage was determined to be 20V.
# Mass spectrometry—Mass spectrometric analysis was performed using a Waters ZQ 4000 mass spectrometer equipped with a Waters 2795 sample manager. MassLynx 4.0 (earlier by MassLynx 3.5) was used for data processing and analysis. Test compounds were mixed with disaggregated peptides in aqueous media (6.6% EtOH) at a 5:1 ratio (20 μM NAC:100 μM of test compound or 40 μM NAC:200 μM of test compound). The pH of the mixture was adjusted to 7.4 (+0.2) using 0.1% NaOH (3-5 μL). Periodically, NAC peptide solution at 20 μM or 40 μM was also prepared in the same fashion and run as control. The spectra were obtained by introducing the solutions to the electrospray source by direct infusion using a syringe pump at a flow rate of 25 μl/min, and scanning from 100 to 2100 Da in the positive mode. The scan time was 0.9 sec per scan with an inter-scan delay of 0.1 sec and the run time was 5 min for each sample. All the mass spectra were sum of 300 scans. The desolvation and source temperature was 70° C. and the cone and capillary voltage were maintained at 20 V and 3.2 kV respectively.
# The total area under the peaks for the bound NAC-compound complex divided by total area under the peaks for unbound NAC was determined for each compound tested.
# [1] = tested on: Aβ peptides (Aβ40, Aβ42) in the plasma and brain of TgCRND8 mice; assay: Short term treatment (14 or 28 days) in TgCRND8 mice: Aβ levels in plasma and brain by ELISA; assay type: in vivo, mouse;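 as to Aβ40 Change Insoluble: symbols grade percent change in Aβ versus untreated control with plus for increase and minus for decrease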;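 as to Aβ40 Change Soluble: symbols grade percent change in Aβ versus untreated control with plus for increase and minus for decrease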;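 as to Aβ42 Change Insoluble: symbols grade percent change in Aβ versus untreated control with plus for increase and minus for decrease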
# Experimental: The short term therapeutic effect of 19 compounds of the invention was studied. These compounds were administered over a 14 or 28 day period at the end of which the levels of Aβ peptides in the plasma and brain of TgCRND8 animals were determined.
# Male and female transgenic mice from the 3rd and 4th B6C3F1 generations were used in this example and given daily subcutaneous or oral administrations of one of a series of compounds for 14 or 28 days. The following abbreviations are used to designate these animals from the 3rd and 4th generation backcross in the present protocol: TgCRND8-2.B6C3F1(N3); TgCRND8-2.B6C3F1 (N4).
# Baseline animals (Group 1) consisted of naive TgCRND8-2. B6C3F1(N3) at 11±1 weeks of age. These mice were used to determine the Aβ levels in the plasma and brain of naive transgenic animals at the initiation of treatment.
# Starting at 11 weeks of age (±1 week) animals received daily administration of their respective treatment for a period of 14 or 28 days (groups 2-21), at a dose of 250 mg/kg at 10 ml/kg or of vehicle only (water; group 2) or 1% methyl cellulose only (group 21). The route of administration was subcutaneous for water-soluble compounds and oral for compounds solubilized in methylcellulose 1%. (MC 1%). At the end of the treatment periods, plasma and perfused brains were collected for quantification of Aβ levels.
# At 11±1 weeks of age for the Baseline group, and at the end of the treatment period (14 or 28 days) for Groups 2 to 21, at 24 hours after the last compound administration animals were sacrificed and samples collected. An approximate blood volume of 500 μl was collected from the orbital sinus and kept on ice until centrifugation at 4° C. at a minimum speed of 3,000 rpm for 10 minutes. Plasma samples were immediately frozen and stored at −80° C. pending analysis. The brains were removed, frozen, and stored at −80° C. awaiting analysis.
# Brains were weighted frozen and homogenized with 4 volumes of ice cold 50 mM Tris-Cl pH 8.0 buffer with protease inhibitor cocktail (4 mL of buffer for 1 g of wet brain). Samples were spun at 15000 g for 20 minutes and the supernatants were transferred to fresh tubes. One hundred fifty (150) μl from each supernatant were mixed with 250 μl of 8M guanidine-HCL/50 mM Tris-HCL pH 8.0 (ratio of 0.6 vol supernatant:1 vol 8M guanidium/Tris-HCL 50 mM pH8.0) and 400 μL 5 M guanidium/Tris-HCL 50 mM pH8.0 were added. The tubes were vortexed for 30 seconds and frozen at −80° C. In parallel, pellets were treated with 7 volumes of 5 M guanidine-HCL/50 mM Tris-HCL pH 8.0 (7 mL of guanidine for 1 g of wet brain), vortexed for 30 seconds and frozen at −80° C. Samples were thawed at room temperature, sonicated at 80° C. for 15 minutes and frozen again. This cycle was repeated 3 times to ensure homogeneity and samples were returned to −80° C. pending analysis.
# Aβ levels were evaluated in plasma and brain samples by ELISA using Human Aβ40 and Aβ42 Fluorometric ELISA kits from Biosource (Cat. No. 89-344 and 89-348) according to manufacturer's recommended procedures. In short, samples were thawed at room temperature, sonicated for 5 minutes at 80° C. (sonication for brain homogenates; no sonication for plasma samples) and kept on ice. Aβ peptides were captured using 100 μl of the diluted samples to the plate and incubated without shaking at 4° C. overnight. The samples were aspirated and the wells were rinsed 4 times with wash buffer obtained from the Biosource ELISA kit. The anti-Aβ40 or anti-Aβ42 rabbit polyclonal antiserum (specific for the Aβ40 or Aβ42 peptide) was added (100 μl) and the plate was incubated at room temperature for 2 hours with shaking. The wells were aspirated and washed 4 times before adding 100 μl of the alkaline phosphatase labeled anti-rabbit antibody and incubating at room temperature for 2 hours with shaking. The plates were then rinsed 5 times and the fluorescent substrate (100 μl) was added to the plate. […]
# [2] = tested on: Aβ peptides (Aβ40, Aβ42) in the plasma and brain of TgCRND8 mice; assay: Long term treatment (8 or 16 weeks) in TgCRND8 mice: Aβ levels in plasma and brain; assay type: in vivo, mouse; settings: BX subcutaneous, BW and BZ oral
# Experimental: The long-term therapeutic effects of compounds of the present invention on cerebral amyloid deposition and β-amyloid (Aβ) levels in the plasma and in the brains of transgenic mice, TgCRND8, expressing the human amyloid precursor protein (hAPP) was studied. These compounds were administered over an 8 or 16 week period at the end of which the levels of Aβ peptides in the plasma and brain of TgCRND8 animals were determined. The goal of this study was to evaluate the efficacy of the compounds at modulating the progression of the amyloidogenic process in the brain and in the plasma of a transgenic mouse model of Alzheimer's disease (AD)
# The mice used in the study consisted of animals bearing one copy of the hAPP gene (+/−) from the 2nd and 3rd generation progenies (N2 and N3) derived from backcrosses from TgCRND8.FVB(N2)AJ(N3) with B6AF1/J hybrid animals. • N1=TgCRND8.FVB(N2)AJ(N3)×B6AF1/J • N2=TgCRND8.FVB(N2)AJ(N3).B6AF1/J(N1)×B6AF1/J • N3=TgCRND8.FVB(N2)AJ(N3).B6AF1/J(N2)×B6AF1/J
# The following abbreviations are used to designate these animals in the present study: TgCRND8.B6AF1/J(N2); TgCRND8.B6AF1/J(N3). Male and female transgenic mice were given daily subcutaneous (compound BX) or oral (compounds BW and BZ) administrations of the appropriate compounds for 8 or 16 weeks.
# Baseline animals consisted of 9±1 week old naive TgCRND8.B6AF1/J animals from the 2nd and 3rd generations. These mice were used to determine the extent of cerebral amyloid deposits and Aβ levels in the plasma and brain of naive transgenic animals at the initiation of treatment.
# Starting at 9 weeks of age (+1 week) animals received daily administration of their respective treatment for a period of 8 or 16 weeks, at a dose of 30 or 100 mg/kg at 10 ml/kg. The route of administration was subcutaneous for water-soluble compounds (Compound BX) and oral for compounds solubilized in methylcellulose 1% (MC 1%) (Compounds BW and BZ). At the end of the treatment periods, plasma and perfused brains were collected for quantification of Aβ levels.
# Animal health was monitored, samples were collected and Aβ levels were measured as described above in the short term treatment study. Compounds were scored based on their ability to modulate levels of Aβ peptides in the plasma and the cerebral soluble/insoluble levels in the brain. Levels of Aβ observed in the plasma and brain of treated animals were compared to that of vehicle-treated (water) or methylcellulose-treated control groups and ranked according to the strength of the pharmacological effect. Increases in the levels of Aβ peptides are indicated using “+” symbols, while decreases in the levels of Aβ peptides are indicated using “−” symbols. The strongest effects are recorded as “+++” or “−−−” while the weakest are shown as “+” or “−”.
# Specifically, increases in the levels of Aβ (relative to vehicle treated control) of 5 to 14% are scored as “+”; increases of 15 to 29% are scored as “++”; and increases of 30% or higher are scored as “+++”. Decreases in the levels of Aβ of 5 to 14% are scored as “−”; decreases of 15 to 29% are scored as “−−”; and decreases of 30% or more are scored as “−−−”. Additionally, changes of 4% or less in either direction are scored as “0”.
# [3] = brain homogenate, Day 14, methylcellulose group, daily oral
# [4] = brain homogenate, Day 28, methylcellulose group, daily oral
# [5] = plasma, Day 28, methylcellulose group, daily oral
smiles,measurement,setting,value
NCCCOS(=O)(=O)[O-].[Na+] [H2NCH2CH2CH2OSO3Na],Binding Strength,NAC peptide,++ (Moderate; when the total binding is between 120% and 70%)
NCCOS(=O)(=O)O [NH2CH2CH2OSO3H],Binding Strength,NAC peptide,− (None; when the total binding is between 30% and 0%)
CC(C)(C)NCCCS(=O)(=O)O [drawing 748],Binding Strength,NAC peptide,++ (Moderate; when the total binding is between 120% and 70%)
O=S(=O)([O-])CCCCS(=O)(=O)[O-].[Na+].[Na+] [NaO3SCH2(CH2)2CH2SO3Na],Binding Strength,NAC peptide,− (None; when the total binding is between 30% and 0%)
NCCS(=O)(=O)O [H2NCH2CH2SO3H],Binding Strength,NAC peptide,+ (Weak; when the total binding is between 70% and 30%)
O=S(=O)(O)CCCNC1C2CC3CC(C2)CC1C3 (centres unmarked) [BZ],Aβ40 Change Insoluble,[1]; [3],−−− (decreases of 39% or more)
same,Aβ42 Change Insoluble,[1]; [3],−− (decreases of 20 to 38%)
same,Aβ40 Change Insoluble,[1]; [4],−− (decreases of 20 to 38%)
same,Aβ40 Change Soluble,[1]; [4],−− (decreases of 20 to 38%)
same,Aβ42 Change Insoluble,[1]; [4],−− (decreases of 20 to 38%)
same,Aβ40 Change,"[1]; plasma, Day 14, methylcellulose group, 250 mg/kg daily oral",+ (increases in the levels of Aβ (relative to untreated control) of 20 to 39%)
same,Aβ40 Change,[1]; [5],++ (increases of 40 to 69%)
same,Aβ42 Change,[1]; [5],++ (increases of 40 to 69%)
same,Brain Abeta40 insoluble,"[2]; 30 mg/kg daily, 8 wks",−− (decreases of 15 to 29%)
same,Brain Abeta40 soluble,"[2]; 30 mg/kg daily, 8 wks",0 (changes of 4% or less in either direction)
same,Brain Abeta42 insoluble,"[2]; 30 mg/kg daily, 8 wks",−−− (decreases of 30% or more)
same,Brain Abeta42 soluble,"[2]; 30 mg/kg daily, 8 wks",0 (changes of 4% or less in either direction)
same,Plasma Abeta40,"[2]; 30 mg/kg daily, 8 wks",0 (changes of 4% or less in either direction)
same,Plasma Abeta42,"[2]; 30 mg/kg daily, 8 wks",0 (changes of 4% or less in either direction)
same,Brain Abeta40 insoluble,"[2]; 30 mg/kg daily, 16 wks",+ (increases in the levels of Aβ (relative to vehicle treated control) of 5 to 14%)
same,Brain Abeta40 soluble,"[2]; 30 mg/kg daily, 16 wks",0 (changes of 4% or less in either direction)
same,Brain Abeta42 insoluble,"[2]; 30 mg/kg daily, 16 wks",0 (changes of 4% or less in either direction)
same,Brain Abeta42 soluble,"[2]; 30 mg/kg daily, 16 wks",+ (increases in the levels of Aβ (relative to vehicle treated control) of 5 to 14%)
same,Plasma Abeta40,"[2]; 30 mg/kg daily, 16 wks",0 (changes of 4% or less in either direction)
same,Plasma Abeta42,"[2]; 30 mg/kg daily, 16 wks",+ (increases in the levels of Aβ (relative to vehicle treated control) of 5 to 14%)
same,Brain Abeta40 insoluble,"[2]; 100 mg/kg daily, 8 wks",0 (changes of 4% or less in either direction)
same,Brain Abeta40 soluble,"[2]; 100 mg/kg daily, 8 wks",++ (increases of 15 to 29%)
same,Brain Abeta42 insoluble,"[2]; 100 mg/kg daily, 8 wks",− (Decreases in the levels of Aβ of 5 to 14%)
same,Brain Abeta42 soluble,"[2]; 100 mg/kg daily, 8 wks",0 (changes of 4% or less in either direction)
same,Plasma Abeta40,"[2]; 100 mg/kg daily, 8 wks",++ (increases of 15 to 29%)
same,Plasma Abeta42,"[2]; 100 mg/kg daily, 8 wks",+++ (increases of 30% or higher)
same,Brain Abeta40 insoluble,"[2]; 100 mg/kg daily, 16 wks",0 (changes of 4% or less in either direction)
same,Brain Abeta40 soluble,"[2]; 100 mg/kg daily, 16 wks",−− (decreases of 15 to 29%)
same,Brain Abeta42 insoluble,"[2]; 100 mg/kg daily, 16 wks",+ (increases in the levels of Aβ (relative to vehicle treated control) of 5 to 14%)
same,Brain Abeta42 soluble,"[2]; 100 mg/kg daily, 16 wks",− (Decreases in the levels of Aβ of 5 to 14%)
same,Plasma Abeta40,"[2]; 100 mg/kg daily, 16 wks",++ (increases of 15 to 29%)
same,Plasma Abeta42,"[2]; 100 mg/kg daily, 16 wks",++ (increases of 15 to 29%)
O=S(=O)(O)CCCNC1C2CC3CC(C2)CC1C3 (centres unmarked) [drawing 749],Binding Strength,NAC peptide,++ (Moderate; when the total binding is between 120% and 70%)
O=S(=O)([O-])OCCCOS(=O)(=O)[O-].[Na+].[Na+] [NaO3SOCH2CH2CH2OSO3Na],Binding Strength,NAC peptide,− (None; when the total binding is between 30% and 0%)
O=S(=O)(O)CC(O)CNC1CCCCC1 (centres unmarked) [drawing 751],Binding Strength,NAC peptide,+++ (Strong; when the total binding is 120% and higher)
NCCCCS(=O)(=O)O,Binding Strength,NAC peptide,+ (Weak; when the total binding is between 70% and 30%)
